Drawing on ChEMBL document CHEMBL2150945, “Synthesis and biological evaluation of novel piperazine derivatives of flavone as potent anti-inflammatory and antimicrobial agent” (2012), this text covers MIC, inhibition and Ratio for 10 compounds.

Converted amounts (≈) assume the structure as drawn.

What is called MIC is the smallest concentration in the dilution series that meets the test's criterion for growth inhibition. By inhibition is commonly meant the change of the read-out against control, counted positive when it falls.

For assay [1], the system named is Aspergillus niger. The assay can be described thus: Antifungal activity against Aspergillus niger MTCC 281 after 2 to 3 days by modified agar well diffusion method. The format is functional. Background: In agar diffusion tests the substance spreads into inoculated agar from a disc or well.
The test system of assay [2] is Escherichia coli. Nature of the assay: Antibacterial activity against Escherichia coli MTCC 443 after 24 hrs by modified agar well diffusion method. The format is functional. The conditions noted are these: MTCC 443, 24 h.
Assay [3] deals with THP-1. Nature of the assay: Antiinflammatory activity in human PMA-activated THP1 cells assessed as inhibition of LPS-induced TNFalpha production at 10 uM incubated for 30 mins prior to LPS-challenge measured after 24 hrs by ELISA relative to control. The format is functional. On the technique in general: ELISA stands for enzyme-linked immunosorbent assay.
In assay [4] the test system is THP-1. Nature of the assay: Antiinflammatory activity in human PMA-activated THP1 cells assessed as inhibition of LPS-induced IL6 production at 10 uM incubated for 30 mins prior to LPS-challenge measured after 24 hrs by ELISA relative to control. The format is functional.
The test system of assay [5] is Staphylococcus aureus. Nature of the assay: Antibacterial activity against Staphylococcus aureus MTCC 96 after 24 hrs by modified agar well diffusion method. The format is functional. The conditions noted are these: MTCC 96, 24 h.
Assay [6] deals with Salmonella typhimurium. The assay can be described thus: Antibacterial activity against Salmonella typhimurium MTCC 98 after 24 hrs by modified agar well diffusion method. The format is functional, Salmonella enterica subsp. enterica serovar Typhimurium. As to conditions: Salmonella enterica, MTCC 98, 24 h.
The test system of assay [7] is Candida albicans. The assay can be described thus: Antifungal activity against Candida albicans MTCC 227 after 2 to 3 days by modified agar well diffusion method. The format is functional.
In assay [8] the test system is Bacillus subtilis. Nature of the assay: Antibacterial activity against Bacillus subtilis MTCC 441 after 24 hrs by modified agar well diffusion method. The format is functional. As to conditions: MTCC 441, 24 h.
Assay [9] concerns Escherichia coli. Nature of the assay: Ratio of ciprofloxacin MIC to compound MIC for Escherichia coli MTCC 443. The format is functional.
The test system of assay [10] is Aspergillus flavus. Nature of the assay: Ratio of miconazole MIC to compound MIC for Aspergillus flavus MTCC 277. The format is functional.
Assay [11] has as its system Aspergillus niger. Nature of the assay: Ratio of miconazole MIC to compound MIC for Aspergillus niger MTCC 281. The format is functional.
Assay [12] concerns Staphylococcus aureus. Nature of the assay: Ratio of ciprofloxacin MIC to compound MIC for Staphylococcus aureus MTCC 96. The format is functional.
Assay [13] deals with Bacillus subtilis. Nature of the assay: Ratio of ciprofloxacin MIC to compound MIC for Bacillus subtilis MTCC 441. The format is functional.
In assay [14] the test system is Fusarium solani. The assay can be described thus: Ratio of miconazole MIC to compound MIC for Fusarium solani MTCC 350. The format is functional.
In assay [15] the test system is Salmonella typhimurium. Nature of the assay: Ratio of ciprofloxacin MIC to compound MIC for Salmonella typhimurium MTCC 98. The format is functional, Salmonella enterica subsp. enterica serovar Typhimurium.
For assay [16], the system named is Candida albicans. The assay can be described thus: Ratio of miconazole MIC to compound MIC for Candida albicans MTCC 227. The format is functional.
In assay [17] the test system is Aspergillus flavus. The assay can be described thus: Antifungal activity against Aspergillus flavus MTCC 277 after 2 to 3 days by modified agar well diffusion method. The format is functional.
In assay [18] the test system is Fusarium solani. Nature of the assay: Antifungal activity against Fusarium solani MTCC 350 after 2 to 3 days by modified agar well diffusion method. The format is functional.

As to `COc1ccc2oc(N3CCN(C)CC3)cc(=O)c2c1`, the MIC in assay [1] is 90 µg/mL (≈ 328 µM); in [2], 40 µg/mL (≈ 146 µM); in [5], 50 µg/mL (≈ 182 µM); in [6], 65 µg/mL (≈ 237 µM); in assay [7], 90 µg/mL (≈ 328 µM); in [8], 45 µg/mL (≈ 164 µM). In addition, the inhibition at 10 µM was 25% in assay [3] and 35% in assay [4].

`COc1cc(OC)c2c(=O)cc(CN3CCN(C/C=C/c4ccccc4)CC3)oc2c1`: the Ratio in assay [9], in [10], in [11], in assay [12], in assay [13] and in assay [14] was 2 throughout. Moreover, the Ratio in assay [15] and in assay [16] was 2 each time. Further, the minimum inhibitory concentration (MIC) in assay [2] came out at 15 µg/mL (≈ 35.7 µM); in assay [5], 20 µg/mL (≈ 47.6 µM); in assay [6], 10 µg/mL (≈ 23.8 µM); in assay [7], 90 µg/mL (≈ 214 µM); in assay [8], 10 µg/mL (≈ 23.8 µM). Besides, the inhibition at 10 µM came to 10% in assay [3] and 25% in assay [4].

With `COc1cc(OC)c2c(=O)cc(CN3CCOCC3)oc2c1`, the MIC in [1] came out at 80 µg/mL (≈ 262 µM); in assay [17], 90 µg/mL (≈ 295 µM); in assay [18] it was 85 µg/mL (≈ 278 µM); in assay [7], 85 µg/mL (≈ 278 µM); in [8] it was 90 µg/mL (≈ 295 µM). Besides, the inhibition at 10 µM was determined as 85% in assay [3] and 91% in assay [4].

For `COc1cc(OC)c2c(=O)cc(CN3CCN(c4ncccn4)CC3)oc2c1`, the MIC in [1] stood at 75 µg/mL (≈ 196 µM); in [2] it was 90 µg/mL (≈ 235 µM); in assay [17], 95 µg/mL (≈ 248 µM); in [18], 65 µg/mL (≈ 170 µM); in assay [6] it was 90 µg/mL (≈ 235 µM); in assay [7], 90 µg/mL (≈ 235 µM). Besides, the inhibition at 10 µM in assay [3] came to 87%; in assay [4] it was 93%.

In the case of `COc1cc(OC)c2c(=O)cc(CN3CCN(C)CC3)oc2c1`, the minimum inhibitory concentration (MIC) in assay [1] is 55 µg/mL (≈ 173 µM); in assay [2] it was 90 µg/mL (≈ 283 µM); in assay [17] it was 75 µg/mL (≈ 236 µM); in assay [18], 75 µg/mL (≈ 236 µM); in [5], 60 µg/mL (≈ 188 µM); in [6], 90 µg/mL (≈ 283 µM). Besides, the MIC in assay [7] is 70 µg/mL (≈ 220 µM); in assay [8] it was 45 µg/mL (≈ 141 µM). The inhibition at 10 µM in [3] is 10%; in assay [4], 0%.

In the case of `COc1ccc2oc(N3CCN(c4ccccc4)CC3)cc(=O)c2c1`, the minimal inhibitory concentration (MIC) in assay [1] stood at 85 µg/mL (≈ 253 µM); in [2] it was 80 µg/mL (≈ 238 µM); in assay [17], 95 µg/mL (≈ 282 µM); in assay [18], 80 µg/mL (≈ 238 µM); in assay [5] it was 75 µg/mL (≈ 223 µM); in [6], 80 µg/mL (≈ 238 µM). The MIC in [7] was 90 µg/mL (≈ 268 µM); in assay [8], 50 µg/mL (≈ 149 µM). The figures for the inhibition at 10 µM in [3] and in assay [4] were 45% and 60%, respectively.

As for `COc1cc(OC)c2c(=O)cc(CN3CCN(c4ccccn4)CC3)oc2c1`, the minimum inhibitory concentration (MIC) was found to be 95 µg/mL (≈ 249 µM) in [1]; 95 µg/mL (≈ 249 µM) in assay [17]; 90 µg/mL (≈ 236 µM) in assay [18]; 85 µg/mL (≈ 223 µM) in assay [7]; 85 µg/mL (≈ 223 µM) in [8]. Moreover, the inhibition at 10 µM in assay [3] amounted to 65%; in assay [4], 70%.

In the case of `COc1cc(OC)c2c(=O)cc(CN3CCN(C(C)=O)CC3)oc2c1`, the minimum inhibitory concentration (MIC) in [1] came out at 60 µg/mL (≈ 173 µM); in assay [2], 95 µg/mL (≈ 274 µM); in assay [17], 90 µg/mL (≈ 260 µM); in assay [18], 85 µg/mL (≈ 245 µM); in assay [5], 80 µg/mL (≈ 231 µM); in assay [6], 90 µg/mL (≈ 260 µM). The minimum inhibitory concentration (MIC) was found to be 75 µg/mL (≈ 217 µM) in assay [7] and 60 µg/mL (≈ 173 µM) in assay [8]. The inhibition at 10 µM in assay [3] and in assay [4] was 0% throughout.

As to `COc1ccc(N2CCN(Cc3cc(=O)c4c(OC)cc(OC)cc4o3)CC2)cc1`, the MIC in assay [1] is 80 µg/mL (≈ 195 µM); in [2], 70 µg/mL (≈ 171 µM); in [17] it was 85 µg/mL (≈ 207 µM); in assay [18] it was 75 µg/mL (≈ 183 µM); in [5] it was 65 µg/mL (≈ 158 µM); in assay [6], 65 µg/mL (≈ 158 µM). In addition, the minimum inhibitory concentration (MIC) in assay [7] stood at 95 µg/mL (≈ 231 µM); in assay [8], 40 µg/mL (≈ 97.4 µM). Besides, the inhibition at 10 µM was 85% in assay [3] and 93% in assay [4].

Consider `CCN1CCN(Cc2cc(=O)c3c(OC)cc(OC)cc3o2)CC1`, for which the MIC worked out at 35 µg/mL (≈ 105 µM) in assay [1]; 70 µg/mL (≈ 211 µM) in assay [2]; 60 µg/mL (≈ 181 µM) in assay [17]; 45 µg/mL (≈ 135 µM) in assay [18]; 75 µg/mL (≈ 226 µM) in [5]; 70 µg/mL (≈ 211 µM) in assay [6]. For the same compound, the results for the MIC in assay [7] and in [8] were 55 µg/mL (≈ 165 µM) and 65 µg/mL (≈ 196 µM), respectively. The inhibition at 10 µM in assay [3] worked out at 20%; in assay [4], 30%.
